Laboratory results from the NIST ThermoML archive (doi:10.1016/j.jct.2008.12.004).

Experiment: excess molar enthalpy (molar enthalpy of mixing); xn = mol fraction of the nth substance listed
Settings: 101 kPa, Liquid, Flow calorimetry

CCCCCCC [heptane] + CCOC(C)(C)C
x2 = 0
Settings	excess molar enthalpy [kJ/mol]
298.15 K	0
313.15 K	0

Cc1ccccc1 [toluene] + CCCCCCC
excess molar enthalpy [kJ/mol]
Settings	298.15 K	313.15 K
x2 = 0	0	0
x2 = 0.0502	0.123	0.119
x2 = 0.1008	0.231	0.222
x2 = 0.1501	0.318	0.306
x2 = 0.1995	0.393	0.376
x2 = 0.2507	–	0.434
x2 = 0.2508	0.452	–
x2 = 0.3002	0.497	0.477
x2 = 0.3495	0.531	–
x2 = 0.3496	–	0.508
x2 = 0.4005	0.55	–
x2 = 0.4006	–	0.529
x2 = 0.4494	0.56	–
x2 = 0.4497	–	0.538
x2 = 0.4999	0.556	0.535
x2 = 0.55	0.545	0.521
x2 = 0.5995	0.521	0.499
x2 = 0.6505	0.485	–
x2 = 0.6506	–	0.466
x2 = 0.7009	0.444	0.426
x2 = 0.7504	0.391	–
x2 = 0.7505	–	0.376
x2 = 0.799	0.333	0.319
x2 = 0.849	0.264	0.251
x2 = 0.9005	0.18	0.174
x2 = 0.9509	0.0923	0.0887

CCCCCC [hexane] + COC(C)(C)C
Settings	excess molar enthalpy [kJ/mol]
298.15 K, x2 = 0	0

CCCO [propan-1-ol] + COC(C)(C)C
Settings	excess molar enthalpy [kJ/mol]
298.15 K, x2 = 0	0

CCOC(C)(C)C [2-ethoxy-2-methylpropane] + CCCCCCC
excess molar enthalpy [kJ/mol]
Settings	298.15 K	313.15 K
x1 = 0.0511	–	0.0422
x1 = 0.0512	0.0457	–
x1 = 0.1007	0.0886	–
x1 = 0.1504	0.123	–
x1 = 0.1507	–	0.121
x1 = 0.2003	0.162	–
x1 = 0.2008	–	0.155
x1 = 0.2509	0.188	–
x1 = 0.2511	–	0.189
x1 = 0.3016	0.214	–
x1 = 0.3019	–	0.212
x1 = 0.3505	0.238	–
x1 = 0.351	–	0.23
x1 = 0.4019	0.253	–
x1 = 0.4024	–	0.245
x1 = 0.4515	0.271	–
x1 = 0.4518	–	0.252
x1 = 0.5014	0.275	–
x1 = 0.5017	–	0.253
x1 = 0.5516	0.272	–
x1 = 0.5519	–	0.25
x1 = 0.6022	0.266	–
x1 = 0.6024	–	0.245
x1 = 0.6509	0.255	–
x1 = 0.6511	–	0.233
x1 = 0.7019	0.233	–
x1 = 0.7022	–	0.218
x1 = 0.7512	0.209	–
x1 = 0.7515	–	0.195
x1 = 0.8008	0.181	–
x1 = 0.801	–	0.167
x1 = 0.8507	0.146	–
x1 = 0.8509	–	0.134
x1 = 0.9009	0.102	–
x1 = 0.901	–	0.0943
x1 = 0.9492	0.0552	–
x1 = 0.9493	–	0.0509
x1 = 1	0	0

CCCCCCC [heptane] + Cc1ccccc1
x1 = 1
Settings	excess molar enthalpy [kJ/mol]
298.15 K	0
313.15 K	0

CCOC(C)(C)C [2-ethoxy-2-methylpropane] + C1CCCCC1
excess molar enthalpy [kJ/mol]
Settings	298.15 K	313.15 K
x1 = 0.0505	0.0505	–
x1 = 0.0506	–	0.0476
x1 = 0.1	0.0987	–
x1 = 0.1001	–	0.0917
x1 = 0.1508	0.143	–
x1 = 0.1509	–	0.136
x1 = 0.2005	0.181	–
x1 = 0.2006	–	0.174
x1 = 0.2514	0.217	–
x1 = 0.2515	–	0.209
x1 = 0.3011	0.247	–
x1 = 0.3012	–	0.235
x1 = 0.3519	0.273	0.261
x1 = 0.4014	0.294	–
x1 = 0.4015	–	0.283
x1 = 0.4519	0.31	–
x1 = 0.452	–	0.295
x1 = 0.5012	0.319	0.305
x1 = 0.5513	0.323	0.308
x1 = 0.6021	0.32	0.306
x1 = 0.6516	0.309	–
x1 = 0.6517	–	0.296
x1 = 0.7017	0.293	–
x1 = 0.7019	–	0.28
x1 = 0.7507	0.269	–
x1 = 0.7508	–	0.258
x1 = 0.8002	0.236	0.224
x1 = 0.85	–	0.184
x1 = 0.8501	0.194	–
x1 = 0.9003	0.142	0.134
x1 = 0.9508	0.0761	0.073
x1 = 1	0	0

Cc1ccccc1 [toluene] + C1CCCCC1
x2 = 0
Settings	excess molar enthalpy [kJ/mol]
298.15 K	0
313.15 K	0
